# Reference: the supplement of paper PMC4862054
# Test system: HDQ-P1
# Experiment: drug sensitivity score (DSS), CellTiter-Blue viability (DSS (AUC-based score)); higher = stronger viability inhibition; extreme values may be limits of the assay
# Details: incubation time: 72 h
# Experimental: (§1)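 DSRT with the CellTiter-Blue (resazurin reduction) viability readout, fluorescence 560/590 nm, 72 h incubation. Plates were normalised to DMSO and benzethonium chloride controls. DSS is computed from the area under the fitted dose-response curve (5 or 9 concentrations).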
row,Compound,drug sensitivity score
1,COc1ncc(-c2ccc3nccc(-c4ccnnc4)c3c2)cc1NS(=O)(=O)c1ccc(F)cc1F,21.1
2,Cn1c(=O)c(F)c(Nc2ccc(I)cc2F)c2c(=O)n(C[C@@H](O)CO)cnc21 [TAK-733],3.87
3,CCS(=O)(=O)c1cccc(-c2cc(C(=O)NC3CCN(C)CC3)c(C)c3[nH]c4ncc(C)cc4c23)c1 [TAK-901],5.84
4,COc1cc(Nc2ncc(F)c(Nc3ccc4c(n3)NC(=O)C(C)(C)O4)n2)cc(OC)c1OC [R406],0
5,COC1=CC(c2cc3ccccc3[nH]2)=N/C1=C\c1[nH]c(C)cc1C [Obatoclax],15.4
6,CS(=O)(=O)OCCCCOS(C)(=O)=O [Busulfan],0
7,COc1cccc2c1C(=O)c1c(O)c3c(c(O)c1C2=O)C[C@@](O)(C(C)=O)C[C@@H]3O[C@H]1C[C@H](N)[C@H](O)[C@H](C)O1 [Daunorubicin],5.31
8,O=c1[nH]cc(F)c(=O)[nH]1 [Fluorouracil],0
9,CN1CCN(c2ccc3nc(-c4c(N)c5c(F)cccc5[nH]c4=O)[nH]c3c2)CC1 [Dovitinib],0
10,O=c1[nH]c(=O)n([C@H]2C[C@H](O)[C@@H](CO)O2)cc1F [Floxuridine],0
11,CC(C)C[C@H](NC(=O)[C@H](Cc1ccccc1)NC(=O)c1cnccn1)B(O)O [Bortezomib],27.7
12,O=C(c1ccc(OCCN2CCCCC2)cc1)c1c(-c2ccc(O)cc2)sc2cc(O)ccc12 [Raloxifene],0

# Test system: MDA-MB-231
# Experiment: as above
# Details: incubation time: 72 h
# Experimental: as §1
row,Compound,drug sensitivity score
1,COc1ncc(-c2ccc3nccc(-c4ccnnc4)c3c2)cc1NS(=O)(=O)c1ccc(F)cc1F,13.3
2,Cn1c(=O)c(F)c(Nc2ccc(I)cc2F)c2c(=O)n(C[C@@H](O)CO)cnc21 [TAK-733],18.1
3,CCS(=O)(=O)c1cccc(-c2cc(C(=O)NC3CCN(C)CC3)c(C)c3[nH]c4ncc(C)cc4c23)c1 [TAK-901],9
4,COc1cc(Nc2ncc(F)c(Nc3ccc4c(n3)NC(=O)C(C)(C)O4)n2)cc(OC)c1OC [R406],5.44
5,COC1=CC(c2cc3ccccc3[nH]2)=N/C1=C\c1[nH]c(C)cc1C [Obatoclax],21
6,CS(=O)(=O)OCCCCOS(C)(=O)=O [Busulfan],0
7,COc1cccc2c1C(=O)c1c(O)c3c(c(O)c1C2=O)C[C@@](O)(C(C)=O)C[C@@H]3O[C@H]1C[C@H](N)[C@H](O)[C@H](C)O1 [Daunorubicin],13.5
8,O=c1[nH]cc(F)c(=O)[nH]1 [Fluorouracil],1.96
9,CN1CCN(c2ccc3nc(-c4c(N)c5c(F)cccc5[nH]c4=O)[nH]c3c2)CC1 [Dovitinib],0
10,O=c1[nH]c(=O)n([C@H]2C[C@H](O)[C@@H](CO)O2)cc1F [Floxuridine],8.09
11,CC(C)C[C@H](NC(=O)[C@H](Cc1ccccc1)NC(=O)c1cnccn1)B(O)O [Bortezomib],28.8
12,O=C(c1ccc(OCCN2CCCCC2)cc1)c1c(-c2ccc(O)cc2)sc2cc(O)ccc12 [Raloxifene],0

# Test system: HCC1599
# Experiment: as above
# Details: incubation time: 72 h
# Experimental: as §1
row,Compound,drug sensitivity score
1,COc1ncc(-c2ccc3nccc(-c4ccnnc4)c3c2)cc1NS(=O)(=O)c1ccc(F)cc1F,17
2,Cn1c(=O)c(F)c(Nc2ccc(I)cc2F)c2c(=O)n(C[C@@H](O)CO)cnc21 [TAK-733],0
3,CCS(=O)(=O)c1cccc(-c2cc(C(=O)NC3CCN(C)CC3)c(C)c3[nH]c4ncc(C)cc4c23)c1 [TAK-901],4.14
4,COc1cc(Nc2ncc(F)c(Nc3ccc4c(n3)NC(=O)C(C)(C)O4)n2)cc(OC)c1OC [R406],0
5,COC1=CC(c2cc3ccccc3[nH]2)=N/C1=C\c1[nH]c(C)cc1C [Obatoclax],7.48
6,CS(=O)(=O)OCCCCOS(C)(=O)=O [Busulfan],0
7,COc1cccc2c1C(=O)c1c(O)c3c(c(O)c1C2=O)C[C@@](O)(C(C)=O)C[C@@H]3O[C@H]1C[C@H](N)[C@H](O)[C@H](C)O1 [Daunorubicin],1.88
8,O=c1[nH]cc(F)c(=O)[nH]1 [Fluorouracil],1.41
9,CN1CCN(c2ccc3nc(-c4c(N)c5c(F)cccc5[nH]c4=O)[nH]c3c2)CC1 [Dovitinib],0
10,O=c1[nH]c(=O)n([C@H]2C[C@H](O)[C@@H](CO)O2)cc1F [Floxuridine],0.768
11,CC(C)C[C@H](NC(=O)[C@H](Cc1ccccc1)NC(=O)c1cnccn1)B(O)O [Bortezomib],7.18
12,O=C(c1ccc(OCCN2CCCCC2)cc1)c1c(-c2ccc(O)cc2)sc2cc(O)ccc12 [Raloxifene],0

# Test system: HCC1143
# Experiment: as above
# Details: incubation time: 72 h
# Experimental: as §1
row,Compound,drug sensitivity score
1,COc1ncc(-c2ccc3nccc(-c4ccnnc4)c3c2)cc1NS(=O)(=O)c1ccc(F)cc1F,14.6
2,Cn1c(=O)c(F)c(Nc2ccc(I)cc2F)c2c(=O)n(C[C@@H](O)CO)cnc21 [TAK-733],8.4
3,CCS(=O)(=O)c1cccc(-c2cc(C(=O)NC3CCN(C)CC3)c(C)c3[nH]c4ncc(C)cc4c23)c1 [TAK-901],8.44
4,COc1cc(Nc2ncc(F)c(Nc3ccc4c(n3)NC(=O)C(C)(C)O4)n2)cc(OC)c1OC [R406],0
5,COC1=CC(c2cc3ccccc3[nH]2)=N/C1=C\c1[nH]c(C)cc1C [Obatoclax],9.51
6,CS(=O)(=O)OCCCCOS(C)(=O)=O [Busulfan],0
7,COc1cccc2c1C(=O)c1c(O)c3c(c(O)c1C2=O)C[C@@](O)(C(C)=O)C[C@@H]3O[C@H]1C[C@H](N)[C@H](O)[C@H](C)O1 [Daunorubicin],10.9
8,O=c1[nH]cc(F)c(=O)[nH]1 [Fluorouracil],0
9,CN1CCN(c2ccc3nc(-c4c(N)c5c(F)cccc5[nH]c4=O)[nH]c3c2)CC1 [Dovitinib],0
10,O=c1[nH]c(=O)n([C@H]2C[C@H](O)[C@@H](CO)O2)cc1F [Floxuridine],3.31
11,CC(C)C[C@H](NC(=O)[C@H](Cc1ccccc1)NC(=O)c1cnccn1)B(O)O [Bortezomib],21.6
12,O=C(c1ccc(OCCN2CCCCC2)cc1)c1c(-c2ccc(O)cc2)sc2cc(O)ccc12 [Raloxifene],0

# Test system: MFM-223
# Experiment: as above
# Details: incubation time: 72 h
# Experimental: as §1
row,Compound,drug sensitivity score
1,COc1ncc(-c2ccc3nccc(-c4ccnnc4)c3c2)cc1NS(=O)(=O)c1ccc(F)cc1F,20.6
2,Cn1c(=O)c(F)c(Nc2ccc(I)cc2F)c2c(=O)n(C[C@@H](O)CO)cnc21 [TAK-733],5.03
3,CCS(=O)(=O)c1cccc(-c2cc(C(=O)NC3CCN(C)CC3)c(C)c3[nH]c4ncc(C)cc4c23)c1 [TAK-901],10.3
4,COc1cc(Nc2ncc(F)c(Nc3ccc4c(n3)NC(=O)C(C)(C)O4)n2)cc(OC)c1OC [R406],0
5,COC1=CC(c2cc3ccccc3[nH]2)=N/C1=C\c1[nH]c(C)cc1C [Obatoclax],7.09
6,CS(=O)(=O)OCCCCOS(C)(=O)=O [Busulfan],0
7,COc1cccc2c1C(=O)c1c(O)c3c(c(O)c1C2=O)C[C@@](O)(C(C)=O)C[C@@H]3O[C@H]1C[C@H](N)[C@H](O)[C@H](C)O1 [Daunorubicin],2.14
8,O=c1[nH]cc(F)c(=O)[nH]1 [Fluorouracil],0
9,CN1CCN(c2ccc3nc(-c4c(N)c5c(F)cccc5[nH]c4=O)[nH]c3c2)CC1 [Dovitinib],0
10,O=c1[nH]c(=O)n([C@H]2C[C@H](O)[C@@H](CO)O2)cc1F [Floxuridine],0
11,CC(C)C[C@H](NC(=O)[C@H](Cc1ccccc1)NC(=O)c1cnccn1)B(O)O [Bortezomib],22.5
12,O=C(c1ccc(OCCN2CCCCC2)cc1)c1c(-c2ccc(O)cc2)sc2cc(O)ccc12 [Raloxifene],0

# Test system: CAL-148
# Experiment: as above
# Details: incubation time: 72 h
# Experimental: as §1
row,Compound,drug sensitivity score
1,COc1ncc(-c2ccc3nccc(-c4ccnnc4)c3c2)cc1NS(=O)(=O)c1ccc(F)cc1F,17.3
2,Cn1c(=O)c(F)c(Nc2ccc(I)cc2F)c2c(=O)n(C[C@@H](O)CO)cnc21 [TAK-733],0
3,CCS(=O)(=O)c1cccc(-c2cc(C(=O)NC3CCN(C)CC3)c(C)c3[nH]c4ncc(C)cc4c23)c1 [TAK-901],0
4,COc1cc(Nc2ncc(F)c(Nc3ccc4c(n3)NC(=O)C(C)(C)O4)n2)cc(OC)c1OC [R406],0
5,COC1=CC(c2cc3ccccc3[nH]2)=N/C1=C\c1[nH]c(C)cc1C [Obatoclax],4.47
6,CS(=O)(=O)OCCCCOS(C)(=O)=O [Busulfan],0
7,COc1cccc2c1C(=O)c1c(O)c3c(c(O)c1C2=O)C[C@@](O)(C(C)=O)C[C@@H]3O[C@H]1C[C@H](N)[C@H](O)[C@H](C)O1 [Daunorubicin],13
8,O=c1[nH]cc(F)c(=O)[nH]1 [Fluorouracil],4.79
9,CN1CCN(c2ccc3nc(-c4c(N)c5c(F)cccc5[nH]c4=O)[nH]c3c2)CC1 [Dovitinib],0
10,O=c1[nH]c(=O)n([C@H]2C[C@H](O)[C@@H](CO)O2)cc1F [Floxuridine],18.3
11,CC(C)C[C@H](NC(=O)[C@H](Cc1ccccc1)NC(=O)c1cnccn1)B(O)O [Bortezomib],17.9
12,O=C(c1ccc(OCCN2CCCCC2)cc1)c1c(-c2ccc(O)cc2)sc2cc(O)ccc12 [Raloxifene],0

# Test system: MDA-MB-453
# Experiment: as above
# Details: incubation time: 72 h
# Experimental: as §1
row,Compound,drug sensitivity score
1,COc1ncc(-c2ccc3nccc(-c4ccnnc4)c3c2)cc1NS(=O)(=O)c1ccc(F)cc1F,25.7
2,Cn1c(=O)c(F)c(Nc2ccc(I)cc2F)c2c(=O)n(C[C@@H](O)CO)cnc21 [TAK-733],3.27
3,CCS(=O)(=O)c1cccc(-c2cc(C(=O)NC3CCN(C)CC3)c(C)c3[nH]c4ncc(C)cc4c23)c1 [TAK-901],10.7
4,COc1cc(Nc2ncc(F)c(Nc3ccc4c(n3)NC(=O)C(C)(C)O4)n2)cc(OC)c1OC [R406],0
5,COC1=CC(c2cc3ccccc3[nH]2)=N/C1=C\c1[nH]c(C)cc1C [Obatoclax],13.8
6,CS(=O)(=O)OCCCCOS(C)(=O)=O [Busulfan],0
7,COc1cccc2c1C(=O)c1c(O)c3c(c(O)c1C2=O)C[C@@](O)(C(C)=O)C[C@@H]3O[C@H]1C[C@H](N)[C@H](O)[C@H](C)O1 [Daunorubicin],3.7
8,O=c1[nH]cc(F)c(=O)[nH]1 [Fluorouracil],1.33
9,CN1CCN(c2ccc3nc(-c4c(N)c5c(F)cccc5[nH]c4=O)[nH]c3c2)CC1 [Dovitinib],0
10,O=c1[nH]c(=O)n([C@H]2C[C@H](O)[C@@H](CO)O2)cc1F [Floxuridine],4.36
11,CC(C)C[C@H](NC(=O)[C@H](Cc1ccccc1)NC(=O)c1cnccn1)B(O)O [Bortezomib],22.7
12,O=C(c1ccc(OCCN2CCCCC2)cc1)c1c(-c2ccc(O)cc2)sc2cc(O)ccc12 [Raloxifene],1.25
